This is an account of results in patent EP4745135A1 (Gluetacs Therapeutics (Shanghai) Co., Ltd., priority 2023, dated 2025).

The test system of one experiment is GSPT1. In words: Western blot, degradation of substrate protein in hPBMCs. It counts as cell-based, Human. The note with it: 24 hours treatment, compounds at 50 nM and 500 nM (concentration behind the class not stated). (In western blotting, separated proteins are transferred to a membrane and probed.)
The subject of experiment [1] is Human monocytic leukemia cell line: THP-1. Nature of the experiment: Tumor cell proliferation inhibition (CellTiter-Meiluncell luminescent cell viability assay). The following applies: THP-1, 96 h; for inhibition at 0.01 µM: read-out: Inhibition Rate at 10 nM (%); for inhibition at 0.5 µM: read-out: Inhibition Rate at 500 nM (%).
Protocol: (§1) The tumor cells used herein were cultured in a cell culture medium listed in table 2 at 37°C in an incubator with 5% CO2. Prior to experimentation, all cell lines used were correctly identified by STR profiling, and tested negative for mycoplasma contamination using a mycoplasma detection kit through routine screenings.
(§2) The IC50 values of the compounds of the present disclosure (including the compounds in Table 1 and Examples) were determined using the CellTiter-Meiluncell Luminescent Cell Viability Assay Kit from Dalian Meilun Biotech Co., Ltd. The detailed procedure is as follows: Tumor cells were seeded in 96-well cell culture plates at the densities specified in Table 3. On the following day, the test compounds of the present disclosure were subjected to serial dilution. The dilution can be performed according to one of the following two methods: • (1) The first dilution method: The test compounds of the present disclosure (including the compounds in Table 1 and Examples) were subjected to 5-fold serial dilutions starting from a highest concentration of 2000 µM, resulting in a total of 9 concentrations from high to low (2000, 400, 80, 16, 3.2, 0.64, 0.128, 0.0256, 0.00512 µM). Subsequently, 0.5 µL of the test compound dilution was transferred into the 96-well plate containing the cells, with each well containing 100 µL of cell culture medium. […] Into the 96-well plate, the diluted test compounds and corresponding detection reagents were added, resulting in final test compound concentrations of 500 nM and 10 nM, respectively. The experimental procedure is described below using the diluted 2 µM test compound as an example.
(§3) 0.5 µL of the aforementioned diluted compound of the present disclosure (including the compounds in Table 1 and Examples) was added to the seeded cells in 100 µL of medium, yielding a final test compound concentration of 10 nM. After the cells were treated with the compounds of the present disclosure for a specified period, the cell viability assay reagent was added to the culture medium according to the kit's instructions to determine cell viability. […] All controls were treated using the same procedure as the compounds of the present disclosure. The growth inhibition curves for the compounds of the present disclosure were plotted using Prism GraphPad software, and the IC50 values were calculated therefrom.
The test system of experiment [2] is Human malignant melanoma cell line: A375. The experiment is described as above. The following applies: A-375, 96 h; for inhibition at 0.01 µM: read-out: Inhibition Rate at 10 nM (%); for inhibition at 0.5 µM: read-out: Inhibition Rate at 500 nM (%).
Protocol: as §1, §2, §3
Experiment [3] deals with T1, human Cereblon WT GST-tagged protein (Homo sapiens, UniProt Q96SW2).
T1 construct: purchased CISBIO 64BDCRBNPEH
In words: CRBN-binding affinity, HTRF (CEREBLON BINDING kit). The following applies: for inhibition at 0.5 µM: read-out: Inhibition Rate at 0.5 µM (%); for inhibition at 2 µM: read-out: Inhibition Rate at 2 µM (%).

A further experiment deals with T2, IKZF3 (Homo sapiens, UniProt Q96SW2+Q9UKT9).
T2 construct: effects of the compounds of the present disclosure on the expression of target proteins in cells; endogenous in cells; host or cells: human PBMCs (Milecell Biotechnologies)
In words: Western blot, degradation of substrate protein in hPBMCs. The note with it: 24 hours treatment, compounds at 50 nM and 500 nM (concentration behind the class not stated). It counts as cell-based.

For another experiment, the target named is T3, WEE1 (Homo sapiens, UniProt P30291+Q96SW2).
T3 construct: effects of the compounds of the present disclosure on the expression of target proteins in cells; endogenous in cells; host or cells: human PBMCs (Milecell Biotechnologies)
Described as above. It counts as cell-based. The note with it: 24 hours treatment, compounds at 50 nM and 500 nM (concentration behind the class not stated).

The target in a further experiment is T4, IKZF1 (Homo sapiens, UniProt Q13422+Q96SW2).
T4 construct: effects of the compounds of the present disclosure on the expression of target proteins in cells; endogenous in cells; host or cells: human PBMCs (Milecell Biotechnologies)
The description is as above. It counts as cell-based. The note with it: 24 hours treatment, compounds at 50 nM and 500 nM (concentration behind the class not stated).

Another experiment addresses T5, CK1α (Homo sapiens, UniProt P48729+Q96SW2).
T5 construct: effects of the compounds of the present disclosure on the expression of target proteins in cells; endogenous in cells; host or cells: human PBMCs (Milecell Biotechnologies)
Described as above. In kind it is cell-based. The note with it: 24 hours treatment, compounds at 50 nM and 500 nM (concentration behind the class not stated).

A further experiment has as its target T6, IKZF2 (Homo sapiens, UniProt Q96SW2+Q9UKS7).
T6 construct: effects of the compounds of the present disclosure on the expression of target proteins in cells; endogenous in cells; host or cells: human PBMCs (Milecell Biotechnologies)
Described as above. It counts as cell-based. The note with it: 24 hours treatment, compounds at 50 nM and 500 nM (concentration behind the class not stated).

In experiment [4] the test system is Human colon cancer cell line: SW620. Nature of the experiment: Tumor cell proliferation inhibition (CellTiter-Meiluncell luminescent cell viability assay). The note with it: SW-620, 96 h; for inhibition at 0.01 µM: read-out: Inhibition Rate at 10 nM (%); for inhibition at 0.5 µM: read-out: Inhibition Rate at 500 nM (%).

T1 sequence (Q96SW2 whole entry): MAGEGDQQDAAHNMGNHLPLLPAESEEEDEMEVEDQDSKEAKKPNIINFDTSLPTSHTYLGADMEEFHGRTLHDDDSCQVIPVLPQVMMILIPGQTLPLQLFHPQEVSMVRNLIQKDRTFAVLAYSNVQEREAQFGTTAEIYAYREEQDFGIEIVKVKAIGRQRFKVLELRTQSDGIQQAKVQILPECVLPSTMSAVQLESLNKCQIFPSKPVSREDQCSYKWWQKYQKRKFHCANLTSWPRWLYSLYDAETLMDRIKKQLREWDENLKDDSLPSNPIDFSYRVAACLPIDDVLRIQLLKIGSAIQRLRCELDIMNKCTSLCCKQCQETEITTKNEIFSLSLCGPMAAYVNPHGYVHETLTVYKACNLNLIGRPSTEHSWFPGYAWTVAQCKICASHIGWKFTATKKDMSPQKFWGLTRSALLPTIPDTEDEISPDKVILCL
T3 sequence (P30291 whole entry): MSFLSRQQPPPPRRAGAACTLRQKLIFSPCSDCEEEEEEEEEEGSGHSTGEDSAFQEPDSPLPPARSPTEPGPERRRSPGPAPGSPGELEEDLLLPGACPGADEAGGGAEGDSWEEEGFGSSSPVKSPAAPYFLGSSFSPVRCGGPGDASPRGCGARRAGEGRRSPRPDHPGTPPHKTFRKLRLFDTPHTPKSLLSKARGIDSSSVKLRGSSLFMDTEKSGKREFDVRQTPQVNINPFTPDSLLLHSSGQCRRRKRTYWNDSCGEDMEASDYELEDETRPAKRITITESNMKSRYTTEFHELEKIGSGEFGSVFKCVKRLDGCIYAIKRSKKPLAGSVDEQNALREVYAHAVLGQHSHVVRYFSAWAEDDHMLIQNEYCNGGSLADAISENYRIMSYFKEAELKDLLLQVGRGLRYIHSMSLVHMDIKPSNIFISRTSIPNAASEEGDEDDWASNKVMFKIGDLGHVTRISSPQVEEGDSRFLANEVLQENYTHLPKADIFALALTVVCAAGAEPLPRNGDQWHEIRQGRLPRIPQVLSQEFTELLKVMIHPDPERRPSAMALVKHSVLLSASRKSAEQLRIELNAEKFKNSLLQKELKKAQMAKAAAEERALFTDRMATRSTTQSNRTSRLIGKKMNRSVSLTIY
T3 sequence (Q96SW2 whole entry): as the sequence (Q96SW2 whole entry) above
T3 sequence (Q16531 whole entry partner): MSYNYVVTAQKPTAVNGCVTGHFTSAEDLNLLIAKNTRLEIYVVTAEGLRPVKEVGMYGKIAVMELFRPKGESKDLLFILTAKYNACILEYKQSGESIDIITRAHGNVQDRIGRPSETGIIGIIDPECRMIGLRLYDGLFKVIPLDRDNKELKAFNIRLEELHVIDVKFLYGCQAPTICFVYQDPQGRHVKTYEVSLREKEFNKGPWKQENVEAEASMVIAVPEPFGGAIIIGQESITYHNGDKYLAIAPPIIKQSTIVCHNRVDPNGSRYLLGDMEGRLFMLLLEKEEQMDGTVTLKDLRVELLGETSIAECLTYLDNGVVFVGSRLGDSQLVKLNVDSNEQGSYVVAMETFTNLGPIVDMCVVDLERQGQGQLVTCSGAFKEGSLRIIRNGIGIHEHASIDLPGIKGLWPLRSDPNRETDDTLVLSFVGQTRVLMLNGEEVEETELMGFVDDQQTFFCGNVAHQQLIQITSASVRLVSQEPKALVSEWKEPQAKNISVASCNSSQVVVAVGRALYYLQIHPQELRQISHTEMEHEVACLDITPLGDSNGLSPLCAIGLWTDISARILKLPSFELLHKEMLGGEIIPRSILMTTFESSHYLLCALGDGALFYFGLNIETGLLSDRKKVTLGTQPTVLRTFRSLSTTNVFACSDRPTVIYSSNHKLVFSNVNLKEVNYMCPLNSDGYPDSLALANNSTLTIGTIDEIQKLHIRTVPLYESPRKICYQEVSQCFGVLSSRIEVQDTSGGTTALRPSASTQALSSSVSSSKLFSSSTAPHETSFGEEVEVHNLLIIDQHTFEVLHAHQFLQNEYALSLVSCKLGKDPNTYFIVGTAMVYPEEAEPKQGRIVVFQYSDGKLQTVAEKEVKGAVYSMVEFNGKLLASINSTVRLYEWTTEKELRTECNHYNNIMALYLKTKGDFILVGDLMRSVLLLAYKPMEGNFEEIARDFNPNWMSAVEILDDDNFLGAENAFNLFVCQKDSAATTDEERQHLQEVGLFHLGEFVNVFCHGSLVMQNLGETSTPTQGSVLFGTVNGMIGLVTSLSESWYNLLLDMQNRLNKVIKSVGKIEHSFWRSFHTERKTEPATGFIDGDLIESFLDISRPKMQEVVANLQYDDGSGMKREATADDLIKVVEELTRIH
T6 sequence (Q9UKS7 whole entry): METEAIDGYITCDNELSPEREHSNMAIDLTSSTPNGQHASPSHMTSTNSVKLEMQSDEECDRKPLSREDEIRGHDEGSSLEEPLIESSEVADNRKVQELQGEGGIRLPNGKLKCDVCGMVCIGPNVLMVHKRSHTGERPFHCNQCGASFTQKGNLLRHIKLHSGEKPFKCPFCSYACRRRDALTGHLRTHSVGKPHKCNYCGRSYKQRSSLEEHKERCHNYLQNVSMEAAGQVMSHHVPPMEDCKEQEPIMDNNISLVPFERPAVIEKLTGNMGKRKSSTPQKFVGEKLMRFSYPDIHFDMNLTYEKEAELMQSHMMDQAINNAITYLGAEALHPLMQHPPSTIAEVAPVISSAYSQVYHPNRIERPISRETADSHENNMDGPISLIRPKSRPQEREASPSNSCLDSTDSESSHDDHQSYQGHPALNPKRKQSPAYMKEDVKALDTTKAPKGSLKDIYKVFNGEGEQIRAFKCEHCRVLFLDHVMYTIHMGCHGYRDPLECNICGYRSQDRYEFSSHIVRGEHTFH
T6 sequence (Q96SW2 whole entry): as the sequence (Q96SW2 whole entry) above
T6 sequence (Q16531 whole entry partner): as the sequence (Q16531 whole entry partner) above
T5 sequence (P48729 whole entry): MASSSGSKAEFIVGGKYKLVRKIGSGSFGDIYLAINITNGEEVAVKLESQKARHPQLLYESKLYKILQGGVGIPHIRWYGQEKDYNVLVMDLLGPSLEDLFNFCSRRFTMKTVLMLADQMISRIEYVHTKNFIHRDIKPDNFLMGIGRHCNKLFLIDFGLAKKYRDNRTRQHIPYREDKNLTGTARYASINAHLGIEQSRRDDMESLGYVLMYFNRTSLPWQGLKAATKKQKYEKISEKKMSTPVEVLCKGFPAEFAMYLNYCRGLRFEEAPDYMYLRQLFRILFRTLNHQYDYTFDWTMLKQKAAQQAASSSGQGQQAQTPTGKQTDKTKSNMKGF
T5 sequence (Q96SW2 whole entry): as the sequence (Q96SW2 whole entry) above
T5 sequence (Q16531 whole entry partner): as the sequence (Q16531 whole entry partner) above
T2 sequence (Q9UKT9 whole entry): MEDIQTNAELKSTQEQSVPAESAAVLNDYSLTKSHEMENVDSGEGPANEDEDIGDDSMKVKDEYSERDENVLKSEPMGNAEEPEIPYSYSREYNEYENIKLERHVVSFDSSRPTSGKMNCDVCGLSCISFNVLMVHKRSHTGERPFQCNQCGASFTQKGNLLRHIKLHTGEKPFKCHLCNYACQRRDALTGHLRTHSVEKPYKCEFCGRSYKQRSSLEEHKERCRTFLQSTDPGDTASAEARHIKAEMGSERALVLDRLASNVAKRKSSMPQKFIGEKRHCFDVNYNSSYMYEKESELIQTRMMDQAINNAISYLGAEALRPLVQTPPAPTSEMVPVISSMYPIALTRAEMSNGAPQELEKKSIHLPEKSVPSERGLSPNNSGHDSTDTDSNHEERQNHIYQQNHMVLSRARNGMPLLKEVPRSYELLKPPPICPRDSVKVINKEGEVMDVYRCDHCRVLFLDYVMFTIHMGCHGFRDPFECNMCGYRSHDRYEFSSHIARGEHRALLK
T2 sequence (Q96SW2 whole entry): as the sequence (Q96SW2 whole entry) above
T2 sequence (Q16531 whole entry partner): as the sequence (Q16531 whole entry partner) above
T4 sequence (Q13422 whole entry): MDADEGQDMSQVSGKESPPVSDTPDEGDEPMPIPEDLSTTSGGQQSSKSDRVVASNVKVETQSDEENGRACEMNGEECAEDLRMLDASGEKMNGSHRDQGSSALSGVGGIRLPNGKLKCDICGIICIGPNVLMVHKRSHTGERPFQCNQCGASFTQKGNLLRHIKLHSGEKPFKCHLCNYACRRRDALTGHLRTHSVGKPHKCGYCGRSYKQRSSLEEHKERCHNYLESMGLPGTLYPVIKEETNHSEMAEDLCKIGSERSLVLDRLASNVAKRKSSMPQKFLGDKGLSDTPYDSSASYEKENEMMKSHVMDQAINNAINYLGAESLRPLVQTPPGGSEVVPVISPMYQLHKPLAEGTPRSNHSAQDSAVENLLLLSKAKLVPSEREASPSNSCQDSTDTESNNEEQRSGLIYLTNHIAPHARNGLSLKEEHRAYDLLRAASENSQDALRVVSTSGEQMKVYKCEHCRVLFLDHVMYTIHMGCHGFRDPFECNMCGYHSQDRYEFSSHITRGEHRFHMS
T4 sequence (Q96SW2 whole entry): as the sequence (Q96SW2 whole entry) above
T4 sequence (Q16531 whole entry partner): as the sequence (Q16531 whole entry partner) above

As a reminder, the inhibition is the relative decrease from the control value, in per cent. On to `O=C1CCC(N2Cc3cc(CN4CC=C(c5ncnc6sc7c(c56)CCC7)CC4)ccc3C2=S)C(=O)N1` (stereo not drawn) [GT-09325, 3-(5-((4-(6,7-dihydro-5H-cyclopenta[4,5]thieno[2,3-d]pyrimidin-4-yl)-3,6-dihydropyridin-1(2H)-yl)methyl)-1-thioxoisoindolin-2-yl)piperidine-2,6-dione], for which the “GSPT1 substrate protein remaining %” value in the experiment on GSPT1 is given as “A (0% ≤ substrate protein remaining % ≤ 80%)”. The inhibition at 0.01 µM in experiment [1] is 5 to 10%; in experiment [2], 20 to 30%; in experiment [4], -15 to -5%. For the same compound, the inhibition at 0.5 µM in experiment [1] was 80 to 100%; in experiment [2] it was 80 to 100%; in experiment [3], 60 to 80%; in experiment [4], 80 to 100%. Further, the inhibition at 2 µM in experiment [3] lay within 80 to 100%. For the same compound, on IKZF3, the “IKZF3 substrate protein remaining %” value is on record as “B (80%< substrate protein remaining %≤ 100%)”. Moreover, on WEE1, the “Wee1 substrate protein remaining %” value was “A (0% ≤ substrate protein remaining % ≤ 80%)”. In addition, the “IKZF 1 substrate protein remaining %” value at IKZF1 was “B (80%< substrate protein remaining %≤ 100%)”. Besides, the “CK1α substrate protein remaining %” value on CK1α is given as “B (80%< substrate protein remaining %≤ 100%)”. Moreover, at IKZF2, the “IKZF2 substrate protein remaining %” value is given as “B (80%< substrate protein remaining %≤ 100%)”.

Regarding `Cc1cc2c(C3=CCN(Cc4ccc5c(c4)CN(C4CCC(=O)NC4=O)C5=S)CC3)ncnc2s1` (stereo not drawn) [GT-09316, 3-(5-((4-(6-methylthieno[2,3-d]pyrimidin-4-yl)-3,6-dihydropyridin-1(2H)-yl)methyl)-1-thioxoisoindolin-2-yl)piperidine-2,6-dione], the “GSPT1 substrate protein remaining %” value with GSPT1 is “A (0% ≤ substrate protein remaining % ≤ 80%)”. The inhibition at 0.01 µM in experiment [1] lay in the range of 5 to 10%; in [2] it was 30 to 40%; in experiment [4], 10 to 20%. Besides, the inhibition at 0.5 µM in experiment [1] is 80 to 100%; in experiment [2], 80 to 100%; in [3] it was 60 to 80%; in [4] it was 80 to 100%. In addition, in experiment [3], the inhibition at 2 µM lay within 80 to 100%. Besides, the “IKZF3 substrate protein remaining %” value on IKZF3 is listed as “A (0% ≤ substrate protein remaining % ≤ 80%)”. Also, the “Wee1 substrate protein remaining %” value on WEE1 is given as “B (80%< substrate protein remaining %≤ 100%)”. In addition, on IKZF1, the “IKZF 1 substrate protein remaining %” value is “A (0% ≤ substrate protein remaining % ≤ 80%)”. Further, the “CK1α substrate protein remaining %” value at CK1α is “B (80%< substrate protein remaining %≤ 100%)”. The “IKZF2 substrate protein remaining %” value on IKZF2 was “B (80%< substrate protein remaining %≤ 100%)”.

On to `Cc1sc2ncnc(C3=CCN(Cc4ccc5c(c4)CN(C4CCC(=O)NC4=O)C5=S)CC3)c2c1C` (stereo not drawn) [GT-09318, 3-(5-((4-(5,6-dimethylthieno[2,3-d]pyrimidin-4-yl)-3,6-dihydropyridin-1(2H)-yl)methyl)-1-thioxoisoindolin-2-yl)piperidine-2,6-dione], for which the “GSPT1 substrate protein remaining %” value with GSPT1 was “A (0% ≤ substrate protein remaining % ≤ 80%)”. Further, the inhibition at 0.01 µM fell in the range of 10 to 20% in experiment [1], 20 to 30% in experiment [2] and 10 to 20% in [4]. The inhibition at 0.5 µM was 80 to 100% in experiment [1], 60 to 70% in experiment [2], 53 to 60% in experiment [3] and 80 to 100% in experiment [4]. The inhibition at 2 µM in experiment [3] lay within 80 to 100%. Also, the “IKZF3 substrate protein remaining %” value at IKZF3 is reported as “A (0% ≤ substrate protein remaining % ≤ 80%)”. At WEE1, the “Wee1 substrate protein remaining %” value was “A (0% ≤ substrate protein remaining % ≤ 80%)”. The “IKZF 1 substrate protein remaining %” value at IKZF1 is “B (80%< substrate protein remaining %≤ 100%)”. In addition, the “CK1α substrate protein remaining %” value at CK1α is “B (80%< substrate protein remaining %≤ 100%)”. For the same compound, the “IKZF2 substrate protein remaining %” value at IKZF2 is “B (80%< substrate protein remaining %≤ 100%)”.
